Experimental findings from PubChem BioAssay AID248 (DTP/NCI, 2004) are described below.

Where “and” joins values, the source holds several entries; their conditions need not be identical. Identical values can stand only once. Inconclusive results and toxic doses are left out.

In this test the test system is L1210 leukemia ip in BDF1 mice, survival T/C. Description: NCI In Vivo Anticancer Drug Screen. Data for tumor model L1210 Leukemia (intraperitoneal) in B6D2F1 (BDF1) mice. The following applies: higher = longer survival. An outline of the steps: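 Survival endpoint. Drug-treated group vs vehicle group, expressed as T divided by C. Tumor passaged by transplantation.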

Where [1] appears, read: endpoint: mean survival time, dose: 100.0 mg/kg/injection, schedule: Q04DX002 (ip), vehicle: Klucel (hydroxypropylcellulose) (HPC).
Setting [2] is: endpoint: mean survival time, dose: 100.0 mg/kg/injection, schedule: Q04DX003 (ip), vehicle: saline with Tween-80.
The mark [3] stands for this setting: endpoint: mean survival time, dose: 400.0 mg/kg/injection, schedule: Q04DX003 (ip), vehicle: saline with Tween-80.
Setting [4] is: endpoint: mean survival time, dose: 100.0 mg/kg/injection, schedule: Q01DX009 (ip), vehicle: Klucel (hydroxypropylcellulose) (HPC).
The mark [5] stands for this setting: endpoint: mean survival time, dose: 200.0 mg/kg/injection, schedule: Q01DX009 (ip), vehicle: Klucel (hydroxypropylcellulose) (HPC).
The mark [6] stands for this setting: endpoint: mean survival time, dose: 400.0 mg/kg/injection, schedule: Q01DX009 (ip), vehicle: Klucel (hydroxypropylcellulose) (HPC).
[7] abbreviates: endpoint: mean survival time, dose: 100.0 mg/kg/injection, schedule: Q04DX003 (ip), vehicle: Klucel (hydroxypropylcellulose) (HPC).
The mark [8] stands for this setting: endpoint: mean survival time, dose: 200.0 mg/kg/injection, schedule: Q04DX003 (ip), vehicle: Klucel (hydroxypropylcellulose) (HPC).
Setting [9] is: endpoint: mean survival time, dose: 400.0 mg/kg/injection, schedule: Q04DX003 (ip), vehicle: Klucel (hydroxypropylcellulose) (HPC).

For `C[n+]1c2ccccc2c(Nc2ccc(NS(=O)(=O)CCCCN=C(N)N)cc2)c2ccc(N)cc21`, the T/C (endpoint: mean survival time, dose: 0.5 mg/kg/injection, schedule: Q03HX008 (ip), vehicle: water) was 167 % of control; the T/C (endpoint: mean survival time, dose: 1.5 mg/kg/injection, schedule: Q01DX009 (ip), vehicle: water) was 186 % of control; the T/C (endpoint: mean survival time, dose: 2.0 mg/kg/injection, schedule: Q03HX008 (ip), vehicle: water) is 160 % of control; the T/C (endpoint: mean survival time, dose: 3.0 mg/kg/injection, schedule: Q01DX009 (ip), vehicle: water) is 160 % of control and 212 % of control; the T/C (endpoint: mean survival time, dose: 3.0 mg/kg/injection, schedule: Q03HX008 (ip), vehicle: water) was 240 % of control; the T/C (endpoint: mean survival time, dose: 3.12 mg/kg/injection, schedule: Q04DX003 (ip), vehicle: water) is 191 % of control. The T/C by setting is: (endpoint: mean survival time, dose: 6.0 mg/kg/injection, schedule: Q01DX009 (ip), vehicle: water) 176 % of control and 218 % of control; (endpoint: mean survival time, dose: 6.0 mg/kg/injection, schedule: Q03HX008 (ip), vehicle: water) 327 % of control; (endpoint: mean survival time, dose: 6.25 mg/kg/injection, schedule: Q04DX003 (ip), vehicle: water) 152 % of control and 170 % of control; (endpoint: mean survival time, dose: 12.0 mg/kg/injection, schedule: Q01DX009 (ip), vehicle: water) 269 % of control; (endpoint: mean survival time, dose: 12.5 mg/kg/injection, schedule: Q01DX001 (ip), vehicle: water) 186 % of control; (endpoint: mean survival time, dose: 12.5 mg/kg/injection, schedule: Q04DX003 (ip), vehicle: water) 171 % of control and 202 % of control. The T/C was 207 % of control (endpoint: mean survival time, dose: 25.0 mg/kg/injection, schedule: Q01DX001 (ip), vehicle: water); 194 % of control and 225 % of control (endpoint: mean survival time, dose: 25.0 mg/kg/injection, schedule: Q04DX003 (ip), vehicle: water); 97 % of control (endpoint: median survival time, dose: 3.0 mg/kg/injection, schedule: Q01DX009 (oral), vehicle: water); 103 % of control (endpoint: median survival time, dose: 6.0 mg/kg/injection, schedule: Q01DX009 (oral), vehicle: water); 166 % of control (endpoint: median survival time, dose: 6.0 mg/kg/injection, schedule: Q01DX009 (sc), vehicle: water); 98 % of control (endpoint: median survival time, dose: 12.0 mg/kg/injection, schedule: Q01DX009 (oral), vehicle: water). Further, the T/C (endpoint: median survival time, dose: 12.0 mg/kg/injection, schedule: Q01DX009 (sc), vehicle: water) is 163 % of control; the T/C (endpoint: median survival time, dose: 24.0 mg/kg/injection, schedule: Q01DX009 (oral), vehicle: water) was 94 % of control; the T/C (endpoint: median survival time, dose: 48.0 mg/kg/injection, schedule: Q01DX009 (oral), vehicle: water) was 95 % of control.

Turning to `NNC(=O)CSSCC(=O)NN`, under setting [1], the T/C was 101 % of control.

Take `CC/C(=N/OC(=O)N(C)C)c1ccccc1`: the T/C (endpoint: mean survival time, dose: 100.0 mg/kg/injection, schedule: Q01DX001 (ip), vehicle: saline) was 96 % of control; the T/C (endpoint: mean survival time, dose: 200.0 mg/kg/injection, schedule: Q01DX001 (ip), vehicle: saline) was 100 % of control; the T/C (endpoint: mean survival time, dose: 400.0 mg/kg/injection, schedule: Q01DX001 (ip), vehicle: saline) is 104 % of control.

On to `CCN(CC)CC(O)Cn1cnc2cncnc21` (centres undefined), for which the T/C by setting is: (endpoint: mean survival time, dose: 25.0 mg/kg/injection, schedule: Q04DX003 (ip), vehicle: saline) 98 % of control; (endpoint: mean survival time, dose: 50.0 mg/kg/injection, schedule: Q04DX003 (ip), vehicle: saline) 107 % of control; (endpoint: mean survival time, dose: 100.0 mg/kg/injection, schedule: Q04DX003 (ip), vehicle: saline) 98 % of control.

As to `c1ccc(C2CC([P+](c3ccccc3)(c3ccccc3)c3ccccc3)=NN2)cc1` (centres undefined), the T/C is, setting by setting: (endpoint: mean survival time, dose: 3.12 mg/kg/injection, schedule: Q01DX009 (ip), vehicle: Klucel (hydroxypropylcellulose) (HPC)) 103 % of control; (endpoint: mean survival time, dose: 6.25 mg/kg/injection, schedule: Q01DX009 (ip), vehicle: Klucel (hydroxypropylcellulose) (HPC)) 120 % of control; (endpoint: mean survival time, dose: 6.25 mg/kg/injection, schedule: Q04DX003 (ip), vehicle: Klucel (hydroxypropylcellulose) (HPC)) 110 % of control; (endpoint: mean survival time, dose: 12.5 mg/kg/injection, schedule: Q01DX002 (ip), vehicle: Klucel (hydroxypropylcellulose) (HPC)) 114 % of control; (endpoint: mean survival time, dose: 12.5 mg/kg/injection, schedule: Q01DX009 (ip), vehicle: Klucel (hydroxypropylcellulose) (HPC)) 92 % of control; (endpoint: mean survival time, dose: 12.5 mg/kg/injection, schedule: Q04DX003 (ip), vehicle: Klucel (hydroxypropylcellulose) (HPC)) 108 % of control. Moreover, the T/C is 104 % of control (endpoint: mean survival time, dose: 25.0 mg/kg/injection, schedule: Q01DX001 (ip), vehicle: Klucel (hydroxypropylcellulose) (HPC)); 104 % of control (endpoint: mean survival time, dose: 25.0 mg/kg/injection, schedule: Q01DX002 (ip), vehicle: Klucel (hydroxypropylcellulose) (HPC)); 108 % of control (endpoint: mean survival time, dose: 25.0 mg/kg/injection, schedule: Q04DX003 (ip), vehicle: Klucel (hydroxypropylcellulose) (HPC)); 97 % of control (endpoint: mean survival time, dose: 50.0 mg/kg/injection, schedule: Q01DX001 (ip), vehicle: Klucel (hydroxypropylcellulose) (HPC)); 97 % of control (endpoint: mean survival time, dose: 50.0 mg/kg/injection, schedule: Q01DX002 (ip), vehicle: Klucel (hydroxypropylcellulose) (HPC)); 97 % of control (endpoint: mean survival time, dose: 50.0 mg/kg/injection, schedule: Q04DX003 (ip), vehicle: Klucel (hydroxypropylcellulose) (HPC)).

In the case of `FC(F)(F)c1cccc(N2N=NC3CC/C(=C\c4ccccc4)C32N2CCOCC2)c1` (centres undefined), the T/C was 97 % of control under setting [1]; 90 % of control (endpoint: mean survival time, dose: 200.0 mg/kg/injection, schedule: Q04DX002 (ip), vehicle: Klucel (hydroxypropylcellulose) (HPC)); 93 % of control (endpoint: mean survival time, dose: 400.0 mg/kg/injection, schedule: Q04DX002 (ip), vehicle: Klucel (hydroxypropylcellulose) (HPC)).

Take `CCN(C(=O)Nc1ccc(Cl)cc1)c1ccccc1`: the T/C runs as follows: under setting [2], 96 % of control; (endpoint: mean survival time, dose: 200.0 mg/kg/injection, schedule: Q04DX003 (ip), vehicle: saline with Tween-80) 95 % of control; under setting [3], 86 % of control.

As for `CC(=O)Nc1ccc(NC(=O)Nc2cccc(C(C)=O)c2)cc1`, the T/C was 90 % of control under setting [4], 101 % of control under setting [5] and 101 % of control under setting [6].

With `CC(=O)CC(C[N+](=O)[O-])c1ccccc1` (centres undefined), the T/C is 100 % of control under setting [4], 100 % of control under setting [5] and 100 % of control under setting [6].

Consider `Cc1ccc(S(=O)(=O)OCC23CC4C5CC2C3(COS(=O)(=O)c2ccc(C)cc2)CC54)cc1`, for which the T/C runs as follows: (endpoint: mean survival time, dose: 75.0 mg/kg/injection, schedule: Q01DX009 (ip), vehicle: Klucel (hydroxypropylcellulose) (HPC)) 95 % of control; (endpoint: mean survival time, dose: 150.0 mg/kg/injection, schedule: Q01DX009 (ip), vehicle: Klucel (hydroxypropylcellulose) (HPC)) 98 % of control; (endpoint: mean survival time, dose: 300.0 mg/kg/injection, schedule: Q01DX009 (ip), vehicle: Klucel (hydroxypropylcellulose) (HPC)) 93 % of control.

With `COc1ccc(C2C3C=CC(C3)C2C(=O)O)cc1` (centres undefined), the T/C runs as follows: (endpoint: mean survival time, dose: 100.0 mg/kg/injection, schedule: Q01DX009 (ip), vehicle: saline with Tween-80) 97 % of control; under setting [2], 93 % of control; (endpoint: mean survival time, dose: 200.0 mg/kg/injection, schedule: Q01DX009 (ip), vehicle: saline with Tween-80) 93 % of control; (endpoint: mean survival time, dose: 400.0 mg/kg/injection, schedule: Q01DX009 (ip), vehicle: saline with Tween-80) 95 % of control; under setting [3], 91 % of control.

On to `Cc1ccc(NC(=O)COc2cc(Cl)c(Cl)cc2Cl)c([N+](=O)[O-])c1`, for which the T/C is 105 % of control under setting [4]; 106 % of control under setting [7]; 89 % of control under setting [5]; 102 % of control under setting [8]; 89 % of control under setting [6]; 93 % of control under setting [9].

For the compound `CCC(=O)CC1CCCC(CC(=O)CC)N1` (centres undefined), the T/C is 96 % of control (endpoint: mean survival time, dose: 75.0 mg/kg/injection, schedule: Q01DX001 (ip), vehicle: saline) and 104 % of control (endpoint: mean survival time, dose: 150.0 mg/kg/injection, schedule: Q01DX001 (ip), vehicle: saline).

Regarding `CC1(CO)CC2CCC1C2` (centres undefined), the T/C is 104 % of control under setting [7], 108 % of control under setting [8] and 106 % of control under setting [9].

Take `C[n+]1ccc(Nc2ccc(NC(=O)c3ccc(N)cc3)cc2)cc1`: the T/C is 117 % of control (endpoint: mean survival time, dose: 12.5 mg/kg/injection, schedule: Q01DX009 (ip), vehicle: water); 107 % of control (endpoint: mean survival time, dose: 25.0 mg/kg/injection, schedule: Q01DX009 (ip), vehicle: water); 112 % of control (endpoint: mean survival time, dose: 50.0 mg/kg/injection, schedule: Q01DX009 (ip), vehicle: water).
